Laboratory results published in patent US7579350B2, “Scaffolds for α-helix mimicry” (The Scripps Research Institute, priority 2005, dated 2009).

- melting point: 130 °C
SMILES: COC(=O)c1cccc(-c2nnc(-c3ccccc3[N+](=O)[O-])cc2Cc2ccccc2)c1
